Results taken from US20060229324A1, “Quinazolin-4-one derivatives” (priority 2002, published 2006).

How the values were obtained:
[1] = tested on: RBL-2H3, a rat basophilic leukemia cell to express hematopoietic prostaglandin D synthase; test: Prostaglandin D2 production inhibition test using cells (A23187-induced, EIA); assay type: cell-based; details: RBL-2H3 cells, A23187 2.5 μM; for Inhibitory Ratio of Prostaglandin D2 (PGD2) Production (%): Drug Concentration 10 μM; for inhibition at 10 µM: Rattus norvegicus, RBL-2H3, Drug Concentration 10 μM, read-out: Inhibitory Ratio of Prostaglandin D2 (PGD2) Production (%)
Procedure: RBL-2H3, a rat basophilic leukemia cell to express hematopoietic prostaglandin D synthase, was inoculated in a 24 well plate and incubated overnight. After replacement with a medium in the presence or absence of a test compound, preincubation was carried out at 37° C. for one hour. After washing of the cells with PBS(-), the medium was replaced with a Hepes buffer solution (pH7.4) in the presence or absence of the test compound, and incubation was continued at 37° C. for 15 minutes. Then, calcium ionophore (A23187) at a final concentration of 2.5 μM was added, and incubation was carried out at 37° C. for 15 minutes to induce the production of PGD2. The supernatant of the cells was collected, and the amount of PGD2 flowed out in the supernatant was measured by EIA kit by Cayman. The inhibitory ratio of the production of PGD2 by the test compound was calculated assuming the amount of PGD2 produced by A23187 in the absence of the test compound as being 100%.

[2] = biological target: human hematopoietic prostaglandin D2 synthase (Homo sapiens, UniProt O60760); test: Inhibitory activity against spleen-type (hematopoietic) prostaglandin D2 synthase, [14C]PGH2 to PGD2, TLC; assay type: biochemical; details: for inhibition at 10 µM / inhibition at 30 µM: read-out: Inhibitory Ratio of Prostaglandin D2 (PGD2) Synthase (%)
Procedure: A buffer solution of 100 mM Tris (hydroxymethyl)aminomethane/HCl buffer (pH8.0) containing glutathione (0.1 mM) and human hematopoietic prostaglandin D2 synthase (adequate quantity) was preincubated at 25° C. for 5 minutes in the presence or absence of a test compound, and then 14C labeled prostaglandin H2 ([14C]PGH2) (10 μM) was added, and the buffer solution was further incubated at 25° C. for one minute. A mixture of ether, methanol, and citric acid was added to the reaction mixture, and the ether layer was developed on silica gel thin-layer chromatography (TLC) (eluent=ether: methanol: acetic acid=90:2:1), and the PGD2 produced was measured by exposure to an imaging plate. The enzyme inhibitory rates of test compounds were calculated assuming the amount of production of PGD2 without the test compound being 100%.

human hematopoietic prostaglandin D2 synthase, sequence (O60760 whole entry): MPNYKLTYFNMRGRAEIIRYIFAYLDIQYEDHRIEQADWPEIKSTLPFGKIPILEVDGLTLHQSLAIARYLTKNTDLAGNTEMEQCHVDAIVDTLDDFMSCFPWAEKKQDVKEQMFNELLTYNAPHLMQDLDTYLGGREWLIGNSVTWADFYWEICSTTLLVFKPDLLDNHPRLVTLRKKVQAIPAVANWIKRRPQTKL

| Structure (SMILES) | inhibition at 10 µM ([2]; Drug Concentration 10 μM) [%] | inhibition at 30 µM ([2]; Drug Concentration 30 μM) [%] | also measured |
| --- | --- | --- | --- |
| Cc1nc2ccccc2c(=O)n1N=Cc1c(C23CC4CC(CC(C4)C2)C3)nn(-c2ccccc2)c1O [Compound 44] |  |  | Inhibitory Ratio of Prostaglandin D2 (PGD2) Production (%) [1]: 100% |
| COc1cc2nc(C)n(/N=C/c3c(C)nn(-c4ccccc4)c3O)c(=O)c2cc1OC [Compound 38, 6,7-dimethoxy-3-[(5-hydroxy-3-methyl-1-phenylpyrazol-4-yl)-methylidene]amino-2-methyl-3,4-dihydroquinazolin-4-one] | 20 | 51 |  |
| O=c1c2ccccc2nc(CO)n1/N=C/c1c(C(F)(F)F)nn(-c2ccccc2)c1O [Compound 28] | 19 | 30 |  |
| Cc1nn(-c2ccccc2)c(O)c1/C=N/n1c(CO)nc2ccccc2c1=O [Compound 26, 3-[(5-hydroxy-3-methyl-1-phenylpyrazol-4-yl)methylidene]-amino-2-hydroxymethyl-3,4-dihydroquinazolin-4-one] | 86 | 71 |  |
| Cc1nn(-c2ccccc2)c(O)c1/C=N/n1c(-c2ccccc2)nc2ccccc2c1=O [Compound 24, 3-[(5-hydroxy-3-methyl-1-phenylpyrazol-4-yl)methylidene]-amino-2-phenyl-3,4-dihydroquinazolin-4-one] |  |  | inhibition at 10 µM [1]: 59% |
| Cc1nc2ccccc2c(=O)n1N=Cc1c(CCCC(=O)O)nn(-c2ccccc2)c1O [Compound 12, 3-{[3-(3-carboxypropyl)-5-hydroxy-1-phenylpyrazol-4-yl]methylidene}amino-2-methyl-3,4-dihydroquinazolin-4-one] | 46 |  |  |
| Cc1nn(-c2ccccc2)c(O)c1/C=N/n1c(C)nc2ccc(Cl)cc2c1=O [Compound 35, 6-chloro-3-[(5-hydroxy-3-methyl-1-phenylpyrazol-4-yl)methylidene]amino-2-methyl-3,4-dihydroquinazolin-4-one] | 15 | 68 |  |
| COc1ccc(-c2nc3ccccc3c(=O)n2N=Cc2c(C)nn(-c3ccccc3)c2O)cc1 [Compound 30, 3-[(5-hydroxy-3-methyl-1-phenylpyrazol-4-yl)methylidene]-amino-2-(4-methoxyphenyl)-3,4-dihydroquinazolin-4-one] |  |  | Inhibitory Ratio of Prostaglandin D2 (PGD2) Synthase (%) ([2]; Drug Concentration 10 μM): 51%; Inhibitory Ratio of Prostaglandin D2 (PGD2) Synthase (%) ([2]; Drug Concentration 30 μM): 71%; Inhibitory Ratio of Prostaglandin D2 (PGD2) Production (%) [1]: 28% |
| Cc1nn(C)c(O)c1/C=N/n1c(C)nc2ccccc2c1=O [Compound 14, 3-[(1,3-dimethyl-5-hydroxypyrazol-4-yl)methylidene]amino-2-methyl-3,4-dihydroquinazolin-4-one] | -2 | 27 |  |
| COc1ccc(-n2nc(C)c(C=Nn3c(C)nc4ccccc4c3=O)c2O)cc1 [Compound 19, 3-{[3-methyl-1-(4-methoxyphenyl)-5-hydroxypyrazol-4-yl]-methylidene}amino-2-methyl-3,4-dihydroquinazolin-4-one] | 6 | 50 |  |
| Cc1nn(-c2ccccc2)c(O)c1/C=N/n1c(C)nc2cc(Cl)ccc2c1=O [Compound 36, 7-chloro-3-[(5-hydroxy-3-methyl-1-phenylpyrazol-4-yl)-methylidene]amino-2-methyl-3,4-dihydroquinazolin-4-one] | 39 | 60 |  |
| Cc1ccc(-n2nc(C)c(C=Nn3c(C)nc4ccccc4c3=O)c2O)cc1 [Compound 18, 3-{[3-methyl-1-(4-methylphenyl)-5-hydroxypyrazol-4-yl]-methylidene}amino-2-methyl-3,4-dihydroquinazolin-4-one] | 23 | 37 |  |
| Cc1nn(-c2ccccc2)c(O)c1/C=N/n1c(C)nc2ccccc2c1=O [Compound 1, 3-[(5-hydroxy-3-methyl-1-phenylpyrazol-4-yl)methylidene]-amino-2-methyl-3,4-dihydroquinazolin-4-one] | 50 | 76 | inhibition at 10 µM [1]: 26% |
| Cc1nn(-c2ccccc2)c(O)c1/C=N/n1c(C(C)C)nc2ccccc2c1=O [Compound 22, 3-[(5-hydroxy-3-methyl-1-phenylpyrazol-4-yl)methylidene]-amino-2-isopropyl-3,4-dihydroquinazolin-4-one] | 14 | 44 |  |
| Cc1nc2ccccc2c(=O)n1N=Cc1c(-c2ccc(C(C)(C)C)cc2)nn(-c2ccccc2)c1O [Compound 45] |  |  | Inhibitory Ratio of Prostaglandin D2 (PGD2) Production (%) [1]: 100% |
| Cc1nn(-c2ccccc2)c(O)c1/C=N/n1c(C)nc2c(C)cccc2c1=O [Compound 34, 2,8-dimethyl-3-[(5-hydroxy-3-methyl-1-phenylpyrazol-4-yl)methylidene]amino-3,4-dihydroquinazolin-4-one] | 71 | 84 |  |
| Cc1nn(-c2ccccc2)c(O)c1C=NN1C(=O)c2ccccc2NC1CO (stereo not shown) [Compound 40, 3-[(5-hydroxy-3-methyl-1-phenylpyrazol-4-yl)-methylidene]amino-2-hydroxymethyl-1,2,3,4-tetrahydroquinazolin-4-one] |  |  | inhibition at 10 µM [1]: 74% |
| Cc1nn(-c2ccccc2)c(O)c1/C=N/n1c(C)nc2cccc(C)c2c1=O [Compound 33, 2,5-dimethyl-3-[(5-hydroxy-3-methyl-1-phenylpyrazol-4-yl)methylidene]amino-3,4-dihydroquinazolin-4-one] | 27 | 61 |  |
| Cc1nn(-c2ccccc2)c(O)c1/C=N/n1c(C(C)(C)C)nc2ccccc2c1=O [Compound 25, 2-tert-butyl-3-[(5-hydroxy-3-methyl-1-phenylpyrazol-4-yl)methylidene]amino-3,4-dihydroquinazolin-4-one] |  |  | inhibition at 10 µM [1]: 47% |
| COc1ccccc1-c1nc2ccccc2c(=O)n1N=Cc1c(C)nn(-c2ccccc2)c1O [Compound 32, 3-[(5-hydroxy-3-methyl-1-phenylpyrazol-4-yl)methylidene]-amino-2-(2-methoxyphenyl)-3,4-dihydroquinazolin-4-one] |  |  | Inhibitory Ratio of Prostaglandin D2 (PGD2) Synthase (%) ([2]; Drug Concentration 10 μM): 12%; Inhibitory Ratio of Prostaglandin D2 (PGD2) Synthase (%) ([2]; Drug Concentration 30 μM): 15% |
| Cc1nn(-c2cccc(Cl)c2)c(O)c1C=Nn1c(C)nc2ccccc2c1=O [Compound 16, 3-{[1-(3-chlorophenyl)-3-methyl-5-hydroxypyrazol-4-yl]-methylidene}amino-2-methyl-3,4-dihydroquinazolin-4-one] | 50 | 81 |  |
| CCc1nn(-c2ccccc2)c(O)c1/C=N/n1c(C)nc2ccccc2c1=O [Compound 6, 3-[(3-ethyl-5-hydroxy-1-phenylpyrazol-4-yl)methylidene]-amino-2-methyl-3,4-dihydroquinazolin-4-one] | 18 |  |  |
| Cc1nn(-c2ccccc2Cl)c(O)c1C=Nn1c(C)nc2ccccc2c1=O [Compound 15, 3-{[1-(2-chlorophenyl)-3-methyl-5-hydroxypyrazol-4-yl]-methylidene}amino-2-methyl-3,4-dihydroquinazolin-4-one] | 20 | 53 |  |
| CCc1nc2ccccc2c(=O)n1/N=C/c1c(C)nn(-c2ccccc2)c1O [Compound 21] | 13 | 51 |  |
| CCOC(=O)CCCc1nn(-c2ccccc2)c(O)c1C=Nn1c(C)nc2ccccc2c1=O [Compound 11, 3-({3-[3-(ethoxycarbonyl)propyl]-5-hydroxy-1-phenylpyrazol-4-yl}methylidene)amino-2-methyl-3,4-dihydroquinazolin-4-one] | 45 |  |  |
| COCc1nc2ccccc2c(=O)n1N=Cc1c(C)nn(-c2ccccc2)c1O [Compound 29, 3-[(5-hydroxy-3-methyl-1-phenylpyrazol-4-yl)methylidene]-amino-2-methoxymethyl-3,4-dihydroquinazolin-4-one] |  |  | Inhibitory Ratio of Prostaglandin D2 (PGD2) Synthase (%) ([2]; Drug Concentration 10 μM): 20%; Inhibitory Ratio of Prostaglandin D2 (PGD2) Synthase (%) ([2]; Drug Concentration 30 μM): 40% |
| COc1cccc(-c2nc3ccccc3c(=O)n2N=Cc2c(C)nn(-c3ccccc3)c2O)c1 [Compound 31, 3-[(5-hydroxy-3-methyl-1-phenylpyrazol-4-yl)methylidene]-amino-2-(3-methoxyphenyl)-3,4-dihydroquinazolin-4-one] |  |  | Inhibitory Ratio of Prostaglandin D2 (PGD2) Synthase (%) ([2]; Drug Concentration 10 μM): 23%; Inhibitory Ratio of Prostaglandin D2 (PGD2) Synthase (%) ([2]; Drug Concentration 30 μM): 26% |
| Cc1nn(-c2ccccc2)c(O)c1C=NN1C(=O)c2ccccc2NC1CO (stereo not shown) [Compound 41, 3-[(5-hydroxy-3-methyl-1-phenylpyrazol-4-yl)-methylidene]amino-2-hydroxymethyl-1,2,3,4-tetrahydroquinazolin-4-one] |  |  | Inhibitory Ratio of Prostaglandin D2 (PGD2) Production (%) [1]: 80% |
